Measurements as given in patent US20240317724A1, “3,4-METHYLENEDIOXYMETHAMPHETAMINE AND RELATED PS[…] USES THEREOF” (Terran Biosciences Inc., priority 2021, published 2024).

Assay: Single oral (PO) dose pharmacokinetics study in rats; plasma concentration of MDMA (and prodrug) by LC-MS/MS
Conditions: male SD rats
[1] = 0.50 h after oral dosing of prodrug 10 mg/Kg
[2] = 1.00 h after oral dosing of prodrug 10 mg/Kg
[3] = 2.00 h after oral dosing of prodrug 10 mg/Kg
[4] = 4.00 h after oral dosing of prodrug 10 mg/Kg
[5] = 7.00 h after oral dosing of prodrug 10 mg/Kg
[6] = 24.0 h after oral dosing of prodrug 10 mg/Kg

Compound	Mean plasma concentration of metabolite MDMA [1]	Mean plasma concentration of metabolite MDMA [2]	Mean plasma concentration of metabolite MDMA [3]	Mean plasma concentration of metabolite MDMA [4]	Mean plasma concentration of metabolite MDMA [5]	Mean plasma concentration of metabolite MDMA [6]	Tlast of MDMA prodrug (oral dosing of prodrug 10 mg/Kg, analyte prodrug, mean) [h]
CC(=O)OCC(C)(C)CC(=O)N(C)C(C)Cc1ccc2c(c1)OCO2 (stereo not shown) [(3-{[2-(2H-1,3-Benzodioxol-5-yl)-1-methylethyl]-N-methylcarbamoyl}-2,2-dimethylpropyl acetate]	BLQ (BLQ: Below Lower Limit of Quantification (0.5 ng/mL))	BLQ (BLQ: Below Lower Limit of Quantification (0.5 ng/mL))	BLQ (BLQ: Below Lower Limit of Quantification (0.5 ng/mL))	BLQ (BLQ: Below Lower Limit of Quantification (0.5 ng/mL))	BLQ (BLQ: Below Lower Limit of Quantification (0.5 ng/mL))	BLQ (BLQ: Below Lower Limit of Quantification (0.5 ng/mL))	
CC(Cc1ccc2c(c1)OCO2)N(C)C(=O)CCCCC(=O)O (stereo not shown) [Adipate prodrug of MDMA, 5-{[2-(2H-1,3-Benzodioxol-5-yl)-1-methyl-ethyl]-N-methylcarbamoyl}valeric acid]	BLQ (BLQ: Below Lower Limit of Quantification (0.5 ng/mL))	BLQ (BLQ: Below Lower Limit of Quantification (0.5 ng/mL))	BLQ (BLQ: Below Lower Limit of Quantification (0.5 ng/mL))	BLQ (BLQ: Below Lower Limit of Quantification (0.5 ng/mL))	BLQ (BLQ: Below Lower Limit of Quantification (0.5 ng/mL))	BLQ (BLQ: Below Lower Limit of Quantification (0.5 ng/mL))	
CC(Cc1ccc2c(c1)OCO2)N(C)C(=O)N(C)C (stereo not shown) [Dimethylurea prodrug of MDMA, 1-[2-(2H-1,3-Benzodioxol-5-yl)-1-methyl-ethyl]-1,3,3-trimethylurea]	BLQ (BLQ: Below Lower Limit of Quantification (0.5 ng/mL))	BLQ (BLQ: Below Lower Limit of Quantification (0.5 ng/mL))	BLQ (BLQ: Below Lower Limit of Quantification (0.5 ng/mL))	BLQ (BLQ: Below Lower Limit of Quantification (0.5 ng/mL))	BLQ (BLQ: Below Lower Limit of Quantification (0.5 ng/mL))	BLQ (BLQ: Below Lower Limit of Quantification (0.5 ng/mL))	
CCOC(=O)N(C)C(C)Cc1ccc2c(c1)OCO2 (stereo not shown) [Ethyl carbamate prodrug of MDMA, Ethyl N-[2-(1,3-benzodioxol-5-yl)-1-methyl-ethyl]-N-methyl-carbamate]	BLQ (BLQ: Below Lower Limit of Quantification (0.5 ng/mL))	BLQ (BLQ: Below Lower Limit of Quantification (0.5 ng/mL))	BLQ (BLQ: Below Lower Limit of Quantification (0.5 ng/mL))	BLQ (BLQ: Below Lower Limit of Quantification (0.5 ng/mL))	BLQ (BLQ: Below Lower Limit of Quantification (0.5 ng/mL))	BLQ (BLQ: Below Lower Limit of Quantification (0.5 ng/mL))	
CC(Cc1ccc2c(c1)OCO2)N(C)C(=O)CCCC(=O)O (stereo not shown) [Glutarate Prodrug of MDMA, 4-{[2-(2H-1,3-Benzodioxol-5-yl)-1-methyl-ethyl]-N-methylcarbamoyl}butyric acid]	BLQ (BLQ: Below Lower Limit of Quantification (0.5 ng/mL))	BLQ (BLQ: Below Lower Limit of Quantification (0.5 ng/mL))	BLQ (BLQ: Below Lower Limit of Quantification (0.5 ng/mL))	BLQ (BLQ: Below Lower Limit of Quantification (0.5 ng/mL))	BLQ (BLQ: Below Lower Limit of Quantification (0.5 ng/mL))	BLQ (BLQ: Below Lower Limit of Quantification (0.5 ng/mL))	
CC(C)COC(=O)N(C)C(C)Cc1ccc2c(c1)OCO2 (stereo not shown) [Isobutyl carbamate prodrug of MDMA, isobutyl N-[2-(1,3-benzodioxol-5-yl)-1-methyl-ethyl]-N-methyl-carbamate]	BLQ (BLQ: Below Lower Limit of Quantification (0.5 ng/mL))	BLQ (BLQ: Below Lower Limit of Quantification (0.5 ng/mL))	BLQ (BLQ: Below Lower Limit of Quantification (0.5 ng/mL))	BLQ (BLQ: Below Lower Limit of Quantification (0.5 ng/mL))	BLQ (BLQ: Below Lower Limit of Quantification (0.5 ng/mL))	BLQ (BLQ: Below Lower Limit of Quantification (0.5 ng/mL))	
CC(C)OC(=O)N(C)C(C)Cc1ccc2c(c1)OCO2 (stereo not shown) [Isopropyl carbamate prodrug of MDMA, isopropyl N-[2-(1,3-benzodioxol-5-yl)-1-methyl-ethyl]-N-methyl-carbamate]	BLQ (BLQ: Below Lower Limit of Quantification (0.5 ng/mL))	BLQ (BLQ: Below Lower Limit of Quantification (0.5 ng/mL))	BLQ (BLQ: Below Lower Limit of Quantification (0.5 ng/mL))	BLQ (BLQ: Below Lower Limit of Quantification (0.5 ng/mL))	BLQ (BLQ: Below Lower Limit of Quantification (0.5 ng/mL))	BLQ (BLQ: Below Lower Limit of Quantification (0.5 ng/mL))	
CC(Cc1ccc2c(c1)OCO2)N(C)C(=O)[C@@H](N)CCCCN (stereo partly drawn) [Lysine prodrug of MDMA, (2S)-2,6-diamino-N-[2-(1,3-benzodioxol-5-yl)-1-methyl-ethyl]-N-methyl-hexanamide]	BLQ (BLQ: Below Lower Limit of Quantification (0.5 ng/mL))	BLQ (BLQ: Below Lower Limit of Quantification (0.5 ng/mL))	BLQ (BLQ: Below Lower Limit of Quantification (0.5 ng/mL))	BLQ (BLQ: Below Lower Limit of Quantification (0.5 ng/mL))	BLQ (BLQ: Below Lower Limit of Quantification (0.5 ng/mL))	BLQ (BLQ: Below Lower Limit of Quantification (0.5 ng/mL))	24.0
CC(=O)N(C)C(C)Cc1ccc2c(c1)OCO2 (stereo not shown) [Methyl amide (acetyl) prodrug of MDMA, N-[2-(2H-1,3-Benzodioxol-5-yl)-1-methyl-ethyl]-N-methylacetamide]	BLQ (BLQ: Below Lower Limit of Quantification (0.5 ng/mL))	BLQ (BLQ: Below Lower Limit of Quantification (0.5 ng/mL))	BLQ (BLQ: Below Lower Limit of Quantification (0.5 ng/mL))	BLQ (BLQ: Below Lower Limit of Quantification (0.5 ng/mL))	BLQ (BLQ: Below Lower Limit of Quantification (0.5 ng/mL))	BLQ (BLQ: Below Lower Limit of Quantification (0.5 ng/mL))	
CC(Cc1ccc2c(c1)OCO2)N(C)C(=O)C1CCOC1 (stereo not shown) [N-[2-(2H-1,3-Benzodioxol-5-yl)-1-methyl-ethyl]-N-methyl-tetrahydro-3-furamide]	BLQ (BLQ: Below Lower Limit of Quantification (0.5 ng/mL))	BLQ (BLQ: Below Lower Limit of Quantification (0.5 ng/mL))	BLQ (BLQ: Below Lower Limit of Quantification (0.5 ng/mL))	BLQ (BLQ: Below Lower Limit of Quantification (0.5 ng/mL))	BLQ (BLQ: Below Lower Limit of Quantification (0.5 ng/mL))	BLQ (BLQ: Below Lower Limit of Quantification (0.5 ng/mL))	
CC(Cc1ccc2c(c1)OCO2)N(C)C(=O)C1(C)CCOCC1 (stereo not shown) [N-[2-(2H-1,3-Benzodioxol-5-yl)-1-methylethyl]-N-methyl-4-methyltetrahydro-2H-pyran-4-carboxamide]	BLQ (BLQ: Below Lower Limit of Quantification (0.5 ng/mL))	BLQ (BLQ: Below Lower Limit of Quantification (0.5 ng/mL))	BLQ (BLQ: Below Lower Limit of Quantification (0.5 ng/mL))	BLQ (BLQ: Below Lower Limit of Quantification (0.5 ng/mL))	BLQ (BLQ: Below Lower Limit of Quantification (0.5 ng/mL))	BLQ (BLQ: Below Lower Limit of Quantification (0.5 ng/mL))	
CC(Cc1ccc2c(c1)OCO2)N(C)C(=O)OC1COC1 (stereo not shown) [Oxetane-3-yl carbamate prodrug of MDMA, Oxetan-3-yl N-[2-(1,3-benzodioxol-5-yl)-1-methyl-ethyl]-N-methyl-carbamate]	BLQ (BLQ: Below Lower Limit of Quantification (0.5 ng/mL))	BLQ (BLQ: Below Lower Limit of Quantification (0.5 ng/mL))	BLQ (BLQ: Below Lower Limit of Quantification (0.5 ng/mL))	BLQ (BLQ: Below Lower Limit of Quantification (0.5 ng/mL))	BLQ (BLQ: Below Lower Limit of Quantification (0.5 ng/mL))	BLQ (BLQ: Below Lower Limit of Quantification (0.5 ng/mL))	
CCCOC(=O)N(C)C(C)Cc1ccc2c(c1)OCO2 (stereo not shown) [Propyl carbamate prodrug of MDMA, propyl N-[2-(1,3-benzodioxol-5-yl)-1-methyl-ethyl]-N-methyl-carbamate]	BLQ (BLQ: Below Lower Limit of Quantification (0.5 ng/mL))	BLQ (BLQ: Below Lower Limit of Quantification (0.5 ng/mL))	BLQ (BLQ: Below Lower Limit of Quantification (0.5 ng/mL))	BLQ (BLQ: Below Lower Limit of Quantification (0.5 ng/mL))	BLQ (BLQ: Below Lower Limit of Quantification (0.5 ng/mL))	BLQ (BLQ: Below Lower Limit of Quantification (0.5 ng/mL))	
